# According to patent publication US6235717A, “Pharmaceutical compounds” (Glaxo Wellcome Inc., priority 1993, dated 2001):
# Non-standard residues stand in square brackets, D forms with d. Residues, ends and D or L forms follow the SMILES beside them. ξ: configuration not given here. *: point of attachment. Phe(4-Br) = N[CH](Cc1ccc(Br)cc1)C(=O)O; ξW = NC(Cc1c[nH]c2ccccc12)C(=O)O; Cha = N[CH](CC1CCCCC1)C(=O)O; MeOSuc = COC(=O)CCC(=O)*; Cbz = O=C(OCc1ccccc1)*; Pentanoyl = CCCCC(=O)*; Ahx = NCCCCCC(=O)O; Bn = c1ccc(C*)cc1; OtBu = CC(C)(C)O*
# Molecular target: endothelin converting enzyme (ECE) (Sus scrofa, UniProt F1SU04)
# Sequence (F1SU04 entry or part of it): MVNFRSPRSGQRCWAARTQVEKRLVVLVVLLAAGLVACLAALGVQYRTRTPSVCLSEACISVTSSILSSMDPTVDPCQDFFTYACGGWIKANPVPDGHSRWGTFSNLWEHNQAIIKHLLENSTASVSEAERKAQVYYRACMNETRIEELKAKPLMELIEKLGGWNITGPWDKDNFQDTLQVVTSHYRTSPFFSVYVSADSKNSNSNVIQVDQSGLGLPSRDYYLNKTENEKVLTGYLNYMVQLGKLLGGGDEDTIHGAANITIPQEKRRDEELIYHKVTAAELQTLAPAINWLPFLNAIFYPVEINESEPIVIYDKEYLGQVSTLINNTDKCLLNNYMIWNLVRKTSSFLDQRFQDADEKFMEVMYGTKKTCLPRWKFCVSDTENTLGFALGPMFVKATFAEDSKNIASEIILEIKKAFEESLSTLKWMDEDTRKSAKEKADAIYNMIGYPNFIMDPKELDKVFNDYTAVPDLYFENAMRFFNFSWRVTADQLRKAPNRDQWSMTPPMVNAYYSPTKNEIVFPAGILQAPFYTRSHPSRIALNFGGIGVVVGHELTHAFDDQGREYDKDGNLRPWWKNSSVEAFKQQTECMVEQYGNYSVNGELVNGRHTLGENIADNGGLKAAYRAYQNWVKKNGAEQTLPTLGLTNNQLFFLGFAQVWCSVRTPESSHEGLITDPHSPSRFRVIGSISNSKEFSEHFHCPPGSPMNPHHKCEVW
# Assay: "ECE" assay with porcine aortic "ECE" prep, fluorogenic substrate Suc-Ile-Ile-Trp-MCA
# Format: biochemical
# Settings: porcine aortic endothelial cell ECE prep; 80 μM Suc-Ile-Ile-Trp-MCA; 15-20 min preincubation; overnight at 37° C.; pH 7.0; AMC fluorescence
# Procedure: IC50 values were determined as follows:
# Porcine Aortic "ECE" Prep
# Porcine aortas (22-25) were obtained fresh from a local slaughterhouse and delivered in cold PBS on ice. The aortas were cut open, rinsed with cold PBS and the endothelial cell layer scraped into cold PBS using a scalpel. The endothelial cells were pelleted by centrifugation, rinsed once with cold PBS, and repelleted. The pellet was lysed by addition of 10 volumes of 10 mM Tris-HCl, pH 7.0, containing protease inhibitors and DTS, followed by brief sonication and homogenization. The lysate was centrifuged at 100,000 g for 1 hour and the supernatant applied to a MONOQ FPLC anion exchange column equilibrated in 10 mM Tris-HCl, pH 7.0 (buffer A) which was then developed with an increasing gradient of NaCl in buffer A. The active fractions were aliquoted and stored at -70° C.
# The ECE assay was performed in 96-well microplates in a total volume of 200μ/well. The assay cocktail contains 100 mM Tris-HCl, pH 7.0, 20 mM CaCl2, 80 μM substrate (Suc-Ile-Ile-Trp-MCA), enzyme and test compounds. The test compounds were preincubated with the enzyme for 15-20 minutes before initiation of the assay by addition of the substrate. The assay was incubated overnight at 37° C. and the fluorescence intensity caused by the release of AMC was determined using a fluorescence microplate reader (EX360 nm/EM460 nm). IC50 values for compounds were determined by constructing concentration-effect curves for the inhibition of enzyme activity. Concentrations on the linear portion of the inhibition curve were used to determine the IC50 utilizing a Hill plot.
row,IC50 [nM],SMILES
1,60,CC[C@H](C)[C@H](NC(=O)[C@H](CC(=O)OC(C)(C)C)NC(=O)OCc1ccccc1)C(=O)N[C@H](C(=O)N[C@H](C=O)Cc1c[nH]c2ccccc12)[C@@H](C)CC [Example 64] (Cbz-D(OtBu)IIW-aldehyde)
2,300,"CC[C@H](C)[C@H](NC(=O)CCCCCNC(=O)CCCCC1SCC2NC(=O)NC21)C(=O)N[C@H](C(=O)NC(Cc1c[nH]c2ccccc12)C(OC)OC)[C@@H](C)CC (stereo partly drawn) [Example 66, N-[[[5-(hexahydro-2-oxo-1H-thieno[3,4-d]imidazol-4-yl)valeramido]hexanoyl]-L-isoleucyl-L-isoleucine-L-N-[1-dimethoxymethyl]2-(1H-indol-3-yl)ethyl]amide]"
3,5000,CC[C@H](C)[C@H](NC(=O)CCCCCNC(=O)CCCCCNC(=O)OCc1ccccc1)C(=O)N[C@H](C(=O)N[C@@H](Cc1c[nH]c2ccccc12)C(OC)OC)[C@@H](C)CC [Example 68]
4,60,CC[C@H](C)[C@H](NC(=O)CCCCCNC(=O)CCCCCNC(=O)c1cc(=O)[nH]c(=O)[nH]1)C(=O)N[C@H](C(=O)NC(C=O)Cc1c[nH]c2ccccc12)[C@@H](C)CC (stereo partly drawn) [Example 69]
5,80,CC[C@H](C)[C@H](NC(=O)CCCCCNC(=O)CCCCCNC(=O)CC1NC(=O)NC1=O)C(=O)N[C@H](C(=O)NC(C=O)Cc1c[nH]c2ccccc12)[C@@H](C)CC (stereo partly drawn) [Example 70]
6,40,CC[C@H](C)[C@H](NC(=O)CCCCCNC(=O)OCc1ccccc1)C(=O)N[C@H](C(=O)N[C@H](C=O)Cc1c[nH]c2ccccc12)[C@@H](C)CC [Example 71] ({Cbz-Ahx}-Ile-Ile-Trp-aldehyde)
7,150,CCCCC(=O)N[C@H](C(=O)N[C@H](C(=O)NC(C=O)Cc1c[nH]c2ccccc12)[C@@H](C)CC)[C@@H](C)CC (stereo partly drawn) [Example 72] (Pentanoyl-Ile-Ile-[ξW]-aldehyde)
8,8000,CC[C@H](C)[C@H](NC(=O)CCC(=O)OC)C(=O)N[C@H](C(=O)NC(Cc1c[nH]c2ccccc12)C(OC)OC)[C@@H](C)CC (stereo partly drawn) [Example 73]
9,80,CC[C@H](C)[C@H](NC(=O)CCC(=O)OC)C(=O)N[C@H](C(=O)NC(C=O)Cc1c[nH]c2ccccc12)[C@@H](C)CC (stereo partly drawn) [Example 74] (MeOSuc-Ile-Ile-[ξW]-aldehyde)
10,40,NC(=O)NN=CC(Cc1c[nH]c2ccccc12)NC(=O)[C@H](Cc1c[nH]c2ccccc12)NC(=O)[C@H](Cc1c[nH]c2ccccc12)NC(=O)OCc1ccccc1 (stereo partly drawn) [Example 75]
11,1000,"CC[C@@H](C)[C@@H](NC(=O)OCc1ccccc1)C(=O)N[C@H](C(=O)N[C@H](C=O)Cc1c[nH]c2ccccc12)[C@@H](C)CC [Example 77, N-Benzyloxycarbonyl-R-isoleucyl-S-isoleucine-1-S--formyl-2-(1H--indol-3-yl)-ethylamide] (Cbz-[dI]-Ile-Trp-aldehyde)"
12,10000,"COC(OC)C(Cc1c[nH]c2ccccc12)NC(=O)[C@H](Cc1c[nH]c2ccccc12)NC(=O)[C@H](Cc1c[nH]c2ccccc12)NC(=O)CCCCCNC(=O)CCCCC1SCC2NC(=O)NC21 (stereo partly drawn) [Example 78, N-[[[5-(hexahydro-2-oxo-1H-thieno[3,4-d]imidazol-4-yl)valeramido]hexanoyl]-L-trytophanyl-L-tryptophan-L-N-[1-dimethoxymethyl]2-(1H-indol-3-yl)ethyl]amide]"
13,10000,CC[C@H](C)[C@H](NC(=O)OCc1ccccc1)C(=O)N[C@H](C(=O)NC(Cc1c[nH]c2ccccc12)NC(=O)COC(C)=O)[C@@H](C)CC (stereo partly drawn) [Example 80]
14,200,CC[C@H](C)[C@H](NC(=O)OCc1cccnc1)C(=O)N[C@H](C(=O)N[C@H](C=O)Cc1c[nH]c2ccccc12)[C@@H](C)CC [Example 81]
15,10000,CCOC(=O)C1OC1C(=O)NCC(Cc1c[nH]c2ccccc12)NC(=O)[C@@H](NC(=O)[C@@H](NC(=O)OCc1ccccc1)[C@@H](C)CC)[C@@H](C)CC (stereo partly drawn) [Example 82]
16,1000,"CC[C@H](C)[C@H](NC(=O)OCc1ccccc1)C(=O)N[C@H](C(=O)NC(CNC(=O)CCN1C(=O)C=CC1=O)Cc1c[nH]c2ccccc12)[C@@H](C)CC (stereo partly drawn) [Example 83, N-(benzyloxy)carbonyl-L-isoleucyl-L-isoleucine-L-N-[1-[(3-maleimidopropionamido]methyl]-2-(1H-indol-3-yl)ethyl]amide]"
17,1000,CC[C@H](C)[C@H](NC(=O)OCc1ccccc1)C(=O)N[C@H](C(=O)N[C@H](CNC(=O)CN1C(=O)C=CC1=O)Cc1c[nH]c2ccccc12)[C@@H](C)CC [Example 84]
18,10000,"CC[C@H](C)[C@H](NC(=O)OCc1ccccc1)C(=O)N[C@H](C(=O)NC(CNC(=O)CCl)Cc1c[nH]c2ccccc12)[C@@H](C)CC (stereo partly drawn) [Example 85, N-(benzyloxy)carbonyl-L-isoleucyl-L-isoleucine-L-N-[1-[(2-chloroacetamido]methy]-2-(1H-indol-3-yl)ethyl]amide]"
19,10000,"CC[C@H](C)[C@H](NC(=O)OCc1ccccc1)C(=O)N[C@H](C(=O)NC(CNC(=O)CO)Cc1c[nH]c2ccccc12)[C@@H](C)CC (stereo partly drawn) [Example 86, N-(benzyloxy)carbonyl-L-isoleucyl-L-isoleucine-L-N-[1-[(2-hydroxyacetamido]methyl]-2-(1H-indol-3-yl)ethyl]amide]"
20,60,"NC(=O)NN=CC(Cc1c[nH]c2ccccc12)NC(=O)[C@H](Cc1c[nH]c2ccccc12)NC(=O)[C@H](Cc1c[nH]c2ccccc12)NC(=O)CCCCCNC(=O)CCCCC1SCC2NC(=O)NC21 (stereo partly drawn) [Example 87, N-[[[5-(hexahydro-2-oxo-1H-thieno[3,4-d]imidazol-4-yl)valeramido]hexanoyl]-L-tryptophanyl-L-tryptophan-L-N-[1-semicarbazonomethyl]2-(1H-indol-3-yl)ethyl]amide]"
21,600,CC[C@H](C)[C@H](NC(=O)OCc1ccccc1)C(=O)N[C@H](C(=O)NC(Cc1ccccc1)C(=O)C(=O)O)[C@@H](C)CC (stereo partly drawn) [Example 88]
22,50,CC[C@H](C)[C@H](NC(=O)CCCCc1ccccc1)C(=O)N[C@H](C(=O)NC(C=O)Cc1c[nH]c2ccccc12)[C@@H](C)CC (stereo partly drawn) [Example 89]
23,60,CC[C@H](C)[C@H](NC(=O)CCOc1ccccc1)C(=O)N[C@H](C(=O)N[C@H](C=O)Cc1c[nH]c2ccccc12)[C@@H](C)CC [Example 90]
24,5,"O=C[C@H](Cc1c[nH]c2ccccc12)NC(=O)[C@H](Cc1c[nH]c2ccccc12)NC(=O)[C@H](Cc1c[nH]c2ccccc12)NC(=O)CCCCC1SCC2NC(=O)NC21 (stereo partly drawn) [Example 91, N-[[5-(hexahydro-2-oxo-1H-thieno[3,4-d]imidazol-4-yl)pentanoyl]-L-tryptophanyl-L-tryptophan-L-N-[1-formyl]2-(1H-indol-3-yl)ethyl]amide]"
25,1000,"COC(OC)[C@H](Cc1c[nH]c2ccccc12)NC(=O)[C@H](Cc1cccc2ccccc12)NC(=O)[C@H](Cc1ccc(Br)cc1)NC(=O)CCCCC1SCC2NC(=O)NC21 (stereo partly drawn) [Example 92, N-[[5-(hexahydro-2-oxo-1H-thieno[3,4-d]imidazol-4-yl)pentanoyl]-L-p-bromophenylalanyl-L-1-naphthylalanyl-L-N-[1-dimethoxymethyl]2-(1H-indol-3-yl)ethyl]amide]"
26,2,"O=CC(Cc1c[nH]c2ccccc12)NC(=O)[C@H](Cc1cccc2ccccc12)NC(=O)[C@H](Cc1ccc(Br)cc1)NC(=O)CCCCC1SCC2NC(=O)NC21 (stereo partly drawn) [Example 93, N-[[5-(hexahydro-2-oxo-1H-thieno[3,4-d]imidazol-4-yl)pentanoyl]-L-p-bromophenylalanyl-L-1-naphthylalanyl-L-N-[1-formyl]2-(1H-indol-3-yl)ethyl]amide]"
27,6,O=C(N[C@@H](Cc1ccc(Br)cc1)C(=O)N[C@@H](Cc1cccc2ccccc12)C(=O)NC(Cc1ccccc1)C(=O)C1CO1)OCc1ccccc1 (stereo partly drawn) [Example 94]
28,1000,"CC[C@H](C)[C@H](NC(=O)OCc1ccccc1)C(=O)N[C@H](C(=O)NC(Cc1c[nH]c2ccccc12)CN1C(=O)C=CC1=O)[C@@H](C)CC (stereo partly drawn) [Example 95, N-[(benzyloxy)carbonyl]-L-isoleucyl-L-isoleucine-L-N-[1-(N-maleimidomethyl)-2-(1H-indol-3-yl)ethyl]amide]"
29,10000,"CC[C@H](C)[C@H](NC(=O)OCc1ccccc1)C(=O)N[C@H](C(=O)NC(Cc1ccccc1)C(=O)C(=O)C(=O)OC)[C@@H](C)CC (stereo partly drawn) [Example 96, N-[(benzyloxy)carbonyl]-L-isoleucyl-L-isoleucine-L-N-[1-(3-methoxycarbonyloxalyl]2-(phenyl)ethyl]amide]"
30,10000,"O=CC(Cc1ccc(Br)cc1)NC(=O)C(Cc1ccc(OCc2ccccc2)cc1)NC(=O)C(CC1CCCCC1)NC(=O)OCc1ccccc1 (stereo not drawn) [Example 97, N-Benzyloxycarbonyl-S-cyclohexylalanyl-S-(O-benzyl)tyrosyl-1-S-formyl-1-(4-bromophenylmethyl)-methylamide] (Cbz-[Cha]-Tyr(Bn)-[Phe(4-Br)]-aldehyde; configuration not given here)"
